# Test results: patent publication US20260048049A1, “METHODS FOR TREATING CANCER USING INHALED ANGIOGENESIS INHIBITOR” (Pulmatrix Operating Company, Inc., priority 2022, published 2026)
# Where two headings read alike, the source gives them in different places.
# Experiments:
# [1] = test system: Calu-3 cell line epithelial cell monolayers; test: cNGI integrated dissolution and permeability study; format: in vitro ADME; settings: Calu-3 ALI monolayer, stage 4 of cNGI
# Source text: This was done using the following equation: […]
# [2] = UniDose POD in vitro dissolution of the impactor stage mass (ISM); format: physicochemical; settings: 500 ml PBS pH 7.4 + 2.0% SDS, 37° C.
# Source text: The following in vitro dissolution model was used to understand the dissolution properties of itraconazole containing dry powder aerosols. The aerosol particles were collected at well-defined aerosol particle size distribution (APSD) cut-offs using the Next Generation Impactor (NGI) (Copley Scientific, UK), and then the dissolution behavior simulated using model lung fluid.
# A UniDose™ (Nanopharm, Newport, United Kingdom) aerosol dose collection system combined with a modified next generation impactor (NGI) was used to uniformly deposit the impactor stage mass (ISM), which is defined as the dose collected on and below stage 2 of a next generation impactor, onto a suitable filter for subsequent dissolution studies in a USP V—Paddle over disk (POD) apparatus.
# The aerosol dose was collected in the UniDose system. […] The UniDose collection system was used to uniformly deposit the whole impactor stage mass (i.e., below stage 2 of an NGI) onto a glass microfiber filter membrane, which can be seen as where the circles (representing particles or droplets) deposit. The filter was placed into a disk cassette and dissolution studies were undertaken using 500 ml PBS pH 7.4+2.0% SDS in a USP Apparatus II POD (Paddle Over Disk, USP V) at 37° C. For all studies, sink conditions were maintained within the vessel. […]
# [3] = cited from earlier work
smiles,measurement,setting,value
"CCC(C)n1ncn(-c2ccc(N3CCN(c4ccc(OCC5COC(Cn6cncn6)(c6ccc(Cl)cc6Cl)O5)cc4)CC3)cc2)c1=O (stereo not shown) [Pure ITZ, itraconazole]",dissolution and permeability kinetics,[1],slower dissolution and permeability kinetics than the other formulations
same,half-life,[2],1.7 h
same,plasma protein binding,[3]; capsules,99.6%
same,plasma protein binding,[3]; oral solution,99.8%
